Source: ChEMBL document CHEMBL4419178, “Yap1 inhibitors that target the interaction of yap1 with oct4” (2018)
Values belong to the compound of their own block, whether it stands above or below them. Activity calls are given as the source filed them. No cut-off for these calls is given here.

Columns and labels:
[1] = target: Transcriptional coactivator YAP1 (Homo sapiens) (UniProt P46937); assay: Inhibition of YAP1 in human NCI-H1650 cells assessed as suppression of PDK2 mRNA expression at 5 to 10 uM incubated for 72 hrs by RT-PCR method; assay type: cell-based
[2] = system: NCI-H146; assay: Effect on expression of Nanog mRNA expression in human NCI-H146 cells at 5 to 10 uM incubated for 72 hrs by RT-PCR method; assay type: cell-based; settings: nci-h146, 72 h
[3] = system: NCI-H146; assay: Inhibition of self-renewal capacity in methotrexate insensitive stem-like side-population cells of human NCI-H146 cells assessed as reduction in number of spheres at 2 uM incubated for 3 days after 7 days methotrexate exposure by sphere formation assay; assay type: functional
[4] = target: Transcriptional coactivator YAP1 (Homo sapiens) (UniProt P46937); assay: Inhibition of YAP1 in human NCI-H146 cells assessed as suppression of Sox2 mRNA expression at 5 to 10 uM incubated for 72 hrs by RT-PCR method; assay type: cell-based
[5] = system: NCI-H1650; assay: Inhibition of YAP1/TEAD2 interaction in human NCI-H1650 cells assessed as suppression of CTGF mRNA expression at 5 to 10 uM incubated for 72 hrs by RT-PCR method; assay type: cell-based
[6] = target: Transcriptional coactivator YAP1 (Homo sapiens) (UniProt P46937); assay: Inhibition of YAP1 in human A549 cells assessed as reduction in PDK2 protein expression at 10 uM incubated for 72 hrs by Western blot analysis; assay type: cell-based
[7] = system: NCI-H1650; assay: Effect on expression of Oct4 mRNA expression in human NCI-H1650 cells at 5 to 10 uM incubated for 72 hrs by RT-PCR method; assay type: cell-based; settings: nci-h1650, 72 h
[8] = target: Transcriptional coactivator YAP1 (Homo sapiens) (UniProt P46937); assay: Inhibition of YAP1 in human NCI-H1650 cells assessed as reduction in c-Myc protein expression at 10 uM incubated for 72 hrs by Western blot analysis; assay type: cell-based
[9] = target: Transcriptional coactivator YAP1 (Homo sapiens) (UniProt P46937); assay: Inhibition of YAP1 in human NCI-H1650 cells assessed as suppression of Sox2 mRNA expression at 5 to 10 uM incubated for 72 hrs by RT-PCR method; assay type: cell-based
[10] = system: NCI-H1703; assay: Effect on expression of Nanog mRNA expression in human NCI-H1703 cells at 5 to 10 uM incubated for 72 hrs by RT-PCR method; assay type: cell-based; settings: nci-h1703, 72 h
[11] = system: NCI-H1650; assay: Effect on expression of Nanog mRNA expression in human NCI-H1650 cells at 5 to 10 uM incubated for 72 hrs by RT-PCR method; assay type: cell-based; settings: nci-h1650, 72 h
[12] = target: Transcriptional coactivator YAP1 (Homo sapiens) (UniProt P46937); assay: Inhibition of YAP1 in human NCI-H1650 cells assessed as reduction in Sox2 protein expression at 10 uM incubated for 72 hrs by Western blot analysis; assay type: cell-based
[13] = target: Transcriptional coactivator YAP1 (Homo sapiens) (UniProt P46937); assay: Inhibition of YAP1 in human A549 cells assessed as reduction in Sox2 protein expression at 10 uM incubated for 72 hrs by Western blot analysis; assay type: cell-based
[14] = system: NCI-H1650; assay: Inhibition of adherence-independent cell growth in human NCI-H1650 cells at 5 uM incubated for 33 days; assay type: functional, cell-based
[15] = target: Transcriptional coactivator YAP1 (Homo sapiens) (UniProt P46937); assay: Inhibition of YAP1 in human NCI-H1650 cells assessed as suppression of PD-L1 mRNA expression at 5 to 10 uM incubated for 72 hrs by RT-PCR method; assay type: cell-based
[16] = target: Transcriptional coactivator YAP1 (Homo sapiens) (UniProt P46937); assay: Inhibition of YAP1 in human NCI-H1703 cells assessed as suppression of HK2 mRNA expression at 5 to 10 uM incubated for 72 hrs by RT-PCR method; assay type: cell-based
[17] = system: NCI-H1975; assay: Cytotoxicity in gefitinib and erlotinib resistant human NCI-H1975 cells assessed as reduction in cell viability at 1 to 10 uM incubated for 72 hrs by MTT assay; assay type: functional, cell-based
[18] = system: NCI-H1650; assay: Inhibition of adherence-independent cell growth in human NCI-H1650 cells at 10 uM incubated for 33 days; assay type: functional, cell-based
[19] = target: Transcriptional coactivator YAP1 (Homo sapiens) (UniProt P46937); assay: Inhibition of YAP1 in human NCI-H1650 cells assessed as suppression of vimentin mRNA expression at 5 to 10 uM incubated for 72 hrs by RT-PCR method; assay type: cell-based
[20] = target: Transcriptional coactivator YAP1 (Homo sapiens) (UniProt P46937); assay: Inhibition of YAP1 in human NCI-H1650 cells assessed as suppression of fibronectin mRNA expression at 5 to 10 uM incubated for 72 hrs by RT-PCR method; assay type: cell-based
[21] = target: Transcriptional coactivator YAP1 (Homo sapiens) (UniProt P46937); assay: Inhibition of YAP1 in human NCI-H1703 cells assessed as suppression of PDK2 mRNA expression at 5 to 10 uM incubated for 72 hrs by RT-PCR method; assay type: cell-based
[22] = target: Transcriptional coactivator YAP1 (Homo sapiens) (UniProt P46937); assay: Inhibition of YAP1 in human NCI-H1703 cells assessed as suppression of vimentin mRNA expression at 5 to 10 uM incubated for 72 hrs by RT-PCR method; assay type: cell-based
[23] = target: Transcriptional coactivator YAP1 (Homo sapiens) (UniProt P46937); assay: Inhibition of YAP1 in human NCI-H1650 cells assessed as reduction in PDK2 protein expression at 10 uM incubated for 72 hrs by Western blot analysis; assay type: cell-based
[24] = system: NCI-H146; assay: Effect on expression of Oct4 mRNA expression in human NCI-H146 cells at 5 to 10 uM incubated for 72 hrs by RT-PCR method; assay type: cell-based; settings: nci-h146, 72 h
[25] = target: Transcriptional coactivator YAP1 (Homo sapiens) (UniProt P46937); assay: Inhibition of YAP1 in human NCI-H1703 cells assessed as suppression of fibronectin mRNA expression at 5 to 10 uM incubated for 72 hrs by RT-PCR method; assay type: cell-based
[26] = system: NCI-H1703; assay: Effect on expression of Oct4 mRNA expression in human NCI-H1703 cells at 5 to 10 uM incubated for 72 hrs by RT-PCR method; assay type: cell-based; settings: nci-h1703, 72 h
[27] = system: NCI-H1703; assay: Inhibition of adherence-independent cell growth in human NCI-H1703 cells at 10 uM incubated for 33 days; assay type: functional, cell-based
[28] = system: NCI-H1703; assay: Inhibition of YAP1/TEAD2 interaction in human NCI-H1703 cells assessed as suppression of CTGF mRNA expression at 5 to 10 uM incubated for 72 hrs by RT-PCR method; assay type: cell-based
[29] = target: Transcriptional coactivator YAP1 (Homo sapiens) (UniProt P46937); assay: Inhibition of YAP1 in human NCI-H146 cells assessed as suppression of HK2 mRNA expression at 5 to 10 uM incubated for 72 hrs by RT-PCR method; assay type: cell-based
[30] = target: Transcriptional coactivator YAP1 (Homo sapiens) (UniProt P46937); assay: Inhibition of YAP1 in human NCI-H1703 cells assessed as suppression of Sox2 mRNA expression at 5 to 10 uM incubated for 72 hrs by RT-PCR method; assay type: cell-based
[31] = system: NCI-H1703; assay: Inhibition of adherence-independent cell growth in human NCI-H1703 cells at 5 uM incubated for 33 days; assay type: functional, cell-based
[32] = target: Transcriptional coactivator YAP1 (Homo sapiens) (UniProt P46937); assay: Inhibition of YAP1 in human A549 cells assessed as reduction in c-Myc protein expression at 10 uM incubated for 72 hrs by Western blot analysis; assay type: cell-based
[33] = target: Transcriptional coactivator YAP1 (Homo sapiens) (UniProt P46937); assay: Inhibition of YAP1 in human NCI-H1703 cells assessed as suppression of PD-L1 mRNA expression at 5 to 10 uM incubated for 72 hrs by RT-PCR method; assay type: cell-based
[34] = target: Transcriptional coactivator YAP1 (Homo sapiens) (UniProt P46937); assay: Inhibition of YAP1 in human NCI-H1650 cells assessed as suppression of HK2 mRNA expression at 5 to 10 uM incubated for 72 hrs by RT-PCR method; assay type: cell-based
[35] = target: Transcriptional coactivator YAP1 (Homo sapiens) (UniProt P46937); assay: Inhibition of YAP1 in human NCI-H146 cells assessed as suppression of PDK2 mRNA expression at 5 to 10 uM incubated for 72 hrs by RT-PCR method; assay type: cell-based
[36] = Cytotoxicity in human cancer associated fibroblasts at 20 to 50 uM incubated for 24 to 48 hrs by cytotracker-red/green dye staining based immunofluorescence microscopy
[37] = system: NCI-H1650; assay: Cytotoxicity in human NCI-H1650 cells assessed as induction of cell killing in presence of cancer associated fibroblasts at 20 to 50 uM incubated for 24 to 48 hrs by cytotracker-red/green dye staining based immunofluorescence microscopy; assay type: functional
[38] = target: Transcriptional coactivator YAP1 (Homo sapiens) (UniProt P46937); assay: Inhibition of YAP1 (unknown origin) assessed as disruption in YAP1/OCT4 interaction at 10 uM by ELISA relative to control
[39] = system: A549; assay: Cytotoxicity in human A549 cells assessed as reduction in cell viability at 1 to 20 uM incubated for 72 hrs by MTT assay; assay type: functional, cell-based
[40] = target: Transcriptional coactivator YAP1 (Homo sapiens) (UniProt P46937); assay: Inhibition of YAP1 (unknown origin) assessed as disruption in YAP1/OCT4 interaction at 50 uM by cell based assay
[41] = system: NCI-H1650; assay: Cytotoxicity in human NCI-H1650 cells assessed as reduction in cell viability at 1 to 20 uM incubated for 72 hrs by MTT assay; assay type: functional, cell-based
[42] = system: NCI-H2286; assay: Cytotoxicity in human NCI-H2286 cells assessed as reduction in cell viability at 5 to 50 uM incubated for 96 hrs by MTT assay; assay type: functional, cell-based
[43] = system: NCI-H1650; assay: Cytotoxicity in human NCI-H1650 cells assessed as reduction in cell viability at 20 to 50 uM incubated for 24 hrs followed by medium replacement with RPMI medium with 10% FCS for 48 hrs by MTT assay; assay type: functional, cell-based
[44] = system: NCI-H1650; assay: Cytotoxicity in human NCI-H1650 cells assessed as reduction in cell viability at 20 to 50 uM incubated for 72 hrs by MTT assay; assay type: functional, cell-based
[45] = system: NCI-H2170; assay: Cytotoxicity in human NCI-H2170 cells assessed as reduction in cell viability at 5 to 50 uM incubated for 96 hrs by MTT assay; assay type: functional, cell-based
[46] = system: NCI-H1650; assay: Inhibition of self-renewal capacity in stem-like side-population cells of human NCI-H1650 cells assessed as reduction in number of spheres at 5 to 50 uM incubated for 10 days by sphere formation assay; assay type: functional, cell-based

Transcriptional coactivator YAP1 (Homo sapiens), sequence (P46937 whole entry): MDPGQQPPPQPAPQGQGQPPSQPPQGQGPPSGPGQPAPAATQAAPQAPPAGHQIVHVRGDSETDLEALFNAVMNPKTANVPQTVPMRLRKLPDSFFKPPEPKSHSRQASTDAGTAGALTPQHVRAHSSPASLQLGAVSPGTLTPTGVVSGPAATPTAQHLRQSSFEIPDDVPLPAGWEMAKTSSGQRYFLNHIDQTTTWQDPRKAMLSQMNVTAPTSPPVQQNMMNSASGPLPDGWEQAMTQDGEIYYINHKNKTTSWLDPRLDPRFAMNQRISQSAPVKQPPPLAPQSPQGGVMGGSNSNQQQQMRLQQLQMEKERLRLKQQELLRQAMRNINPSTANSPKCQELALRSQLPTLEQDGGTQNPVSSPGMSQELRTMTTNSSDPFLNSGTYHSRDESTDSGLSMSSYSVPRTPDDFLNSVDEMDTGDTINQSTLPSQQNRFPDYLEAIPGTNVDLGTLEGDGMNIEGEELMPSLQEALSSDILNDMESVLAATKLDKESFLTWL

inhibition [1]: Active | inhibition [4]: Active | inhibition [6]: Active | inhibition [8]: Active | inhibition [9]: Active | inhibition [12]: Active | inhibition [13]: Active | inhibition [15]: Active | inhibition [16]: Active | inhibition [19]: Active | inhibition [20]: Active | inhibition [21]: Active | inhibition [22]: Active | inhibition [23]: Active | inhibition [25]: Active | inhibition [29]: Active | inhibition [30]: Active | inhibition [32]: Active | inhibition [33]: Active | inhibition [34]: Active | inhibition [35]: Active
SMILES: COC(=O)[C@H](Cc1ccc(OCc2ccccc2)cc1)NC(=O)CC1CCN(C(=O)CCCc2ccccc2)CC1
Activity [2]: Non-Toxic | inhibition [3]: Active | inhibition [5]: inactive | Activity [7]: Non-Toxic | Activity [10]: Non-Toxic | Activity [11]: Non-Toxic | inhibition [14]: Active | Activity [17]: Active | inhibition [18]: Active | Activity [24]: Non-Toxic | Activity [26]: Non-Toxic | inhibition [27]: Active | inhibition [28]: inactive | inhibition [31]: Active

inhibition [6]: Active | inhibition [8]: Active | inhibition [12]: Active | inhibition [13]: Active | inhibition [23]: Active | inhibition [32]: Active
SMILES: COC(=O)[C@H](Cc1ccc(OCc2ccccc2)cc1)NC(=O)CC1CCN(C(=O)Cc2ccc(NC(=O)OC(C)(C)C)cc2)CC1

inhibition [6]: Active | inhibition [8]: Active | inhibition [12]: Active | inhibition [13]: Active | inhibition [23]: Active | inhibition [32]: Active
SMILES: COC(=O)[C@H](Cc1ccc(OCc2ccccc2)cc1)NC(=O)CC1CCN(C(=O)c2ccc(NC(=O)OC(C)(C)C)cc2)CC1
inhibition [14]: Active | inhibition [18]: Active | inhibition [27]: Active | inhibition [31]: Active

inhibition [38]: 80% | inhibition [40]: 82%
SMILES: COC(=O)[C@H](Cc1ccc(OCc2ccccc2)cc1)NC(=O)CC1CCN(C(=O)Cc2ccccc2)CC1
Activity [36]: Non-Toxic | Activity [37]: Active | Activity [39]: Active | Activity [41]: Active | Activity [42]: Active | Activity [43]: Active | Activity [44]: Active | Activity [45]: Active | inhibition [46]: Active
